Values quoted from earlier work in patent US20230074252A1, “DOSAGES AND METHODS FOR TREATING PULMONARY ARTERIAL HYPERTENSION WITH RODATRISTAT” (Altavant Sciences GmbH, priority 2020, published 2023).
pIC50: −log10 of the molar value.

Columns and labels:
prostacyclin receptor = prostacyclin receptor (Homo sapiens, UniProt P43119); conditions: cited from earlier work
[1] = cited from earlier work; for Change in exposure on coadministration with clopidogrel: selexipag + clopidogrel (moderate inhibitor); for Increase in exposure (AUC) on coadministration with gemfibrozil: selexipag + gemfibrozil (strong CYP2C8 inhibitor); for Increase in exposure on coadministration with ritonavir: selexipag + ritonavir
CYP2C8 = biological target: T1, CYP2C8 (Homo sapiens, UniProt P10632); conditions: literature; cited from earlier work
T1 sequence (P10632 1-490): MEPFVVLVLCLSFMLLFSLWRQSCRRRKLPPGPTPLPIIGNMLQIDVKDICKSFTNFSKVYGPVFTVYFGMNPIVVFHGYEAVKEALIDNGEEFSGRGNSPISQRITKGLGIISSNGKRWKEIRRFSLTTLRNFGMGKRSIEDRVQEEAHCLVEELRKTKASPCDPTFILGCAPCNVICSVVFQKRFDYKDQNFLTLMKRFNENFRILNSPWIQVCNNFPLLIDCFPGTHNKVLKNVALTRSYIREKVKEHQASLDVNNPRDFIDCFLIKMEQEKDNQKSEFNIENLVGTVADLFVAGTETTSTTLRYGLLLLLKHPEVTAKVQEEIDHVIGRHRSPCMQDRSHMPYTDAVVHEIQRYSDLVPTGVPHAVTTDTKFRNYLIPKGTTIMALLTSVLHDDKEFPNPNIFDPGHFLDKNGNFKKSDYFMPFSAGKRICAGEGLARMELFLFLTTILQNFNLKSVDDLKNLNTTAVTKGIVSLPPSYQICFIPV

[2] = oral; cited from earlier work
[3] = human, in vivo; cited from earlier work

prostacyclin receptor, sequence (P43119 whole entry, species assumed): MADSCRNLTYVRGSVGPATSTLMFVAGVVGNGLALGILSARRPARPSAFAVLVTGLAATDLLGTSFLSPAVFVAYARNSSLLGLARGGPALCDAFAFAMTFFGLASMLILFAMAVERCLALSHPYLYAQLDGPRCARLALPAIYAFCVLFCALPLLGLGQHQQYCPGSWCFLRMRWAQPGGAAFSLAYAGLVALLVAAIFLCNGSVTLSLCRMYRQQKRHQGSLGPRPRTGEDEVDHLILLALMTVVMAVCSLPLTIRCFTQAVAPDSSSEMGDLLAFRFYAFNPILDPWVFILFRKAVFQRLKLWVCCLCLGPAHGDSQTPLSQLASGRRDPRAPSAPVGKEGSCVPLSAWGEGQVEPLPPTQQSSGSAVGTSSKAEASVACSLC

Row | SMILES | Change in exposure on coadministration with clopidogrel [1] | Increase in exposure (AUC) on coadministration with gemfibrozil [1] | Increase in exposure on coadministration with ritonavir [1] | other results
1 | CC(C)N(CCCCOCC(=O)O)c1cnc(-c2ccccc2)c(-c2ccccc2)n1 [ACT-333679] | 2.7 fold | 11 fold | < 2 fold | Potency relative to selexipag (prostacyclin receptor): approximately 37 fold
2 | O=C1Nc2ccc(Cl)cc2[C@@](C#CC2CC2)(C(F)(F)F)O1 [efavirenz] | – | – | – | pIC50 (CYP2C8): 5.32
3 | CC(C)N(CCCCOCC(=O)NS(C)(=O)=O)c1cnc(-c2ccccc2)c(-c2ccccc2)n1 [selexipag] | did not impact | 2 fold | ~2 fold | –
4 | CCCCC[C@H](O)CC[C@@H]1[C@H]2Cc3cccc(OCC(=O)O)c3C[C@H]2C[C@H]1O.[Na+] [treprostinil, (1R,2R,3aS,9aS)-[[2,3,3a,4,9,9a-Hexahydro-2-hydroxy-1-[(3S)-3-hydroxyoctyl]-1Hbenz[f]inden-5-yl]oxy]acetic acid monosodium salt] | – | – | – | Bioavailability [2]: ~17%; Increase in AUC on coadministration with gemfibrozil [3]: ~2 fold; Increase in Cmax on coadministration with gemfibrozil [3]: ~2 fold
